Laboratory results: the supplement of paper PMC11208160

assay: recombinant barcode read abundance after kanamycin selection (control-corrected) (log10(CPM+1)); higher = more efficient recombination; sequences stand for … in AGTGCAGAGAAAATCGGCCAGTTTTCTCTGCCTGCAGTCCGCATGCCGT…AGATTTATGCAGCGGACTGCCTTTCTCCCAAAGTGATAAACCGGACAGTATCATGGACCGGTTTTCCCGGTAATCCGTATTTGCAAGGTTGGTTTCACT; site = the 11-nt target
Outline: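 Targets and IS621 bridge RNA target-binding loops were paired in oligos, each with a promoter, a barcode and the J23119-driven first 104 bridge RNA bases. A vector carrying the remaining 73 bp and a T7-inducible recombinase received these by Gibson cloning, and the pool was co-electroporated into E. coli with a donor plasmid. Duplicate plates contained chloramphenicol/ampicillin LB agar (control) or chloramphenicol/ampicillin/kanamycin with 0.1 mM IPTG. Recombination efficiency comes from averaged, control-corrected counts per million of recombinant-junction barcodes, reported as log10(CPM+1).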
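Further: IS621 recombinase and bridge RNA in Escherichia coli cells.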

In order of falling “recombinant barcode read abundance (log10)” value:
1. AGACGTCCTTGGGTTCTAACCTGTTGCGT (site AGACGTCCTAC)  2.51
2. TTGGACACTTGGGTTCTAACCTGTTGCCT (site TTGGACACTAG)  2.33
3. CTAAGGGCTTGGGTTCTAACCTGTTGCGG (site CTAAGGGCTCC)  1.94
4. GTGAGGTCTTGGGTTCTAACCTGTTGCGT (site GTGAGGTCTAT)  1.69
5. TACCGGACTTGGGTTCTAACCTGTTGCCT (site TACCGGACTAG)  1.56
6. GAGCTGACTTGGGTTCTAACCTGTTGCCT (site GAGCTGACTAG)  1.49
7. CCTATCCCTTGGGTTCTAACCTGTTGCCT (site CCTATCCCTAG)  1.32
8. AACGTACCTTGGGTTCTAACCTGTTGCAG (site AACGTACCTCT)  1.28
9. CATCCGTCTTGGGTTCTAACCTGTTGCTT (site CATCCGTCTAA)  1.24
10. GACACCTCTTGGGTTCTAACCTGTTGCCG (site GACACCTCTCG)  1.12
11. TTGACACCTTGGGTTCTAACCTGTTGCCT (site TTGACACCTAG)  1.1
12. CCTGACTCTTGGGTTCTAACCTGTTGCCT (site CCTGACTCTAG)  0.85
13. AAAAGCCCTTGGGTTCTAACCTGTTGCCT (site AAAAGCCCTAG)  0.77
14. TGTCGGACTTGGGTTCTAACCTGTTGCAC (site TGTCGGACTAT)  0.741
15. GAAACAGCTTGGGTTCTAACCTGTTGCCT (site GAAACAGCTAG)  0.725
16. AAGAAGCCTTGGGTTCTAACCTGTTGCCT (site CAGAAGCCTAG)  0.717
17. CTAGACGCTTGGGTTCTAACCTGTTGCCT (site CTAGACGCTAG)  0.677
18. GGCACTACTTGGGTTCTAACCTGTTGCGT (site GGCACCACTAC)  0.661
19. CTCTCAGCTTGGGTTCTAACCTGTTGCGA (site CTCTCAGCTTC)  0.549
20. TTCTTAACTTGGGTTCTAACCTGTTGCGG (site TTCTTAACTCC)  0.532
21. AGCCTCCCTTGGGTTCTAACCTGTTGCCT (site AGCCTCCCTAG)  0.474
22. TAACCTACTTGGGTTCTAACCTGTTGCCT (site TAACCTACTAG)  0.442
23. TAGAACCCTTGGGTTCTAACCTGTTGCTT (site TAGAACCCTAA)  0.367
24. TGCTACCCTTGGGTTCTAACCTGTTGCCT (site TCCTACCCTAG)  0.367
25. GGGTCGGCTTGGGTTCTAACCTGTTGCGT (site GGGTCGGCTGC)  0.347
26. GTCGTTACTTGGGTTCTAACCTGTTGCCT (site GTCGTTACTAG)  0.339
27. CATCTACCTTGGGTTCTAACCTGTTGCGG (site TTGGATACTTG)  0.332
28. CAATTTCCTTGGGTTCTAACCTGTTGCAT (site CAATTTCCTAT)  0.322
29. CTCTAGTCTTGGGTTCTAACCTGTTGCAT (site CTCTAGTCTAC)  0.263
30. AAGACATCTTGGGTTCTAACCTGTTGCTT (site TAGACATCTAT)  0.24
31. GCACGGACTTGGGTTCTAACCTGTTGCAG (site GCAAGGACTCT)  0.223
32. GGGCCTACTTGGGTTCTAACCTGTTGCTG (site GGGCCTACTGA)  0.215
33. CATCAGCCTTGGGTTCTAACCTGTTGCCT (site CATAAGCCTAG)  0.206
34. TCGCCTGCTTGGGTTCTAACCTGTTGCCT (site TCGCCTGCTAG)  0.191
35. TAGTATCCTTGGGTTCTAACCTGTTGCCA (site TAGTATCCTTG)  0.146
36. TGTACGACTTGGGTTCTAACCTGTTGCCT (site TGTACGACTAG)  0.146
37. TATGGGGCTTGGGTTCTAACCTGTTGCCT (site TATGAGGCTAG)  0.145
38. GTACGTCCTTGGGTTCTAACCTGTTGCAT (site GTACGTCCTAA)  0.133
39. ACGACTACTTGGGTTCTAACCTGTTGCCT (site ACGACTACTAG)  0.128
40. CCTACATCTTGGGTTCTAACCTGTTGCCT (site CCTACATCTAG)  0.123
41. ACGACCGCTTGGGTTCTAACCTGTTGCCT (site ACGAGCGCTAG)  0.119
42. ACCGTCCCTTGGGTTCTAACCTGTTGCCG (site ACCGTCCCTCG)  0.107
43. ACCTGACCTTGGGTTCTAACCTGTTGCCT (site ACCTGGCCTAG)  0.1
44. GAATCTTCTTGGGTTCTAACCTGTTGCTT (site CAATCGTCTAA)  0.0978
45. TAGTCTGCTTGGGTTCTAACCTGTTGCCT (site TAGACTGCTAG)  0.0965
46. TATTTCTCTTGGGTTCTAACCTGTTGCCT (site GATTTCTCTAG)  0.0942
47. TGGTCGGCTTGGGTTCTAACCTGTTGCAC (site TAGTCAGCTGT)  0.0913
48. CAAACACCTTGGGTTCTAACCTGTTGCTT (site CAACCACCTAA)  0.0879
49. GCCGAGTCTTGGGTTCTAACCTGTTGCTC (site GCCGAGTCTCA)  0.0833
50. GAAAGTCCTTGGGTTCTAACCTGTTGCCT (site GAAATTCCTAG)  0.0822
51. GGTTAGCCTTGGGTTCTAACCTGTTGCCT (site TGTTAGCCTTG)  0.0783
52. CTCGGGCCTTGGGTTCTAACCTGTTGCCT (site TTCGGGCCTAG)  0.0756
53. CCGTAAGCTTGGGTTCTAACCTGTTGCCT (site CCGTAATCTAG)  0.0655
54. ATTGGTTCTTGGGTTCTAACCTGTTGCCT (site ATTGGGTCTAG)  0.0515
55. GCGTTTGCTTGGGTTCTAACCTGTTGCCT (site GGGTTTGCTAG)  0.0501
56. TGGTGCGCTTGGGTTCTAACCTGTTGCCT (site TGGTTCGCTAG)  0.0427
57. TGGCCGACTTGGGTTCTAACCTGTTGCAC (site TCGCAGACTGT)  0.0415
58. TGGCTAGCTTGGGTTCTAACCTGTTGCAC (site CATTCGCCTAC)  0.0401
59. GTAACCTCTTGGGTTCTAACCTGTTGCCG (site GTAACCTCTTG)  0.0357
60. AAGGCCTCTTGGGTTCTAACCTGTTGCCA (site AAGGCCTCTAT)  0.0333
61. GACCCATCTTGGGTTCTAACCTGTTGCCT (site GACACAACTAG)  0.0316
62. CCACGGTCTTGGGTTCTAACCTGTTGCCT (site CCACCGTCTAG)  0.0249
63. CATCCGTCTTGGGTTCTAACCTGTTGCTT (site CATCCCTCTAA)  0.0222
64. ACATGATCTTGGGTTCTAACCTGTTGCCT (site ACAATATCTAG)  0.0106
65. ATGTCTGCTTGGGTTCTAACCTGTTGCCT (site GATGGACCTTA)  0.0105
66. CTTCGTCCTTGGGTTCTAACCTGTTGCAT (site CTTCGTCCTAA)  0.0066
